Results on 32 compounds are retold here after patent publication US8846698B2, “Pyrrolo[2,3-d]pyrimidine tropomysin-related kinase inhibitors” (Pfizer Limited, priority 2011, dated 2014).

A word on the IC50: it is the point on the concentration scale where inhibition reaches its midpoint.

TRKA, sequence (P04629 441-796): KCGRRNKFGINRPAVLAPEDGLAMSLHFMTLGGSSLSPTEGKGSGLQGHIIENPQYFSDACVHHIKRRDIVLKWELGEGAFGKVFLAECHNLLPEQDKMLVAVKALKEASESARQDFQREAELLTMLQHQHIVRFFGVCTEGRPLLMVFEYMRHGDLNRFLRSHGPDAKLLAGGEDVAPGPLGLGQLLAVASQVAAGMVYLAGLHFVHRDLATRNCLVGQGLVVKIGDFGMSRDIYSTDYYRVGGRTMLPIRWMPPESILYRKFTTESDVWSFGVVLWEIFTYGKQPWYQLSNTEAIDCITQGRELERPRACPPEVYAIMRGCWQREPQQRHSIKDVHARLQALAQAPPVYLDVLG

This experiment addresses TRKA (Homo sapiens (Human), UniProt P04629). The experiment can be described thus: Isolated TRK enzyme assay (HTRF KinEASE-TK), TRKA. The note with it: read-out: Trka enzyme (IC50). It is filed as biochemical.
Consider `CC(C)n1cc(C(=O)c2cncc(NC(=O)Cc3ccc(Cl)cc3)c2)c2cncnc21` [Example 69, 2-(4-chlorophenyl)-N-{5-[(7-isopropyl-7H-pyrrolo[2,3-d]pyrimidin-5-yl)carbonyl]pyridin-3-yl}acetamide], for which the IC50 stood at 10.9 nM.

With `CC(C)n1cc(C(=O)c2cncc(NC(=O)Cc3ccccc3OC3CC3)c2)c2cncnc21` [Example 70, 2-[2-(cyclopropyloxy)phenyl]-N-{5-[(7-isopropyl-7H-pyrrolo[2,3-d]pyrimidin-5-yl)carbonyl]pyridin-3-yl}acetamide], the IC50 was found to be 22.8 nM.

Consider `CC(C)n1cc(C(=O)c2cncc(NC(=O)Cc3ccc(C#N)c(C(F)(F)F)c3)c2)c2cncnc21` [Example 72, 2-[4-cyano-3-(trifluoromethyl)phenyl]-N-{5-[(7-isopropyl-7H-pyrrolo[2,3-d]pyrimidin-5-yl)carbonyl]pyridin-3-yl}acetamide], for which the IC50 amounted to 63.3 nM.

For the compound `CC(C)n1cc(C(=O)c2cncc(NC(=O)Cc3ccc(OC4CC4)cc3)c2)c2cncnc21` [Example 73, 2-[4-(cyclopropyloxy)phenyl]-N-{5-[(7-isopropyl-7H-pyrrolo[2,3-d]pyrimidin-5-yl)carbonyl]pyridin-3-yl}acetamide], the concentration for half-maximal inhibition (IC50) was 283 nM.

On to `CC(C)n1cc(C(=O)c2cncc(NC(=O)Cc3cccc(OC4CC4)c3)c2)c2cncnc21` [Example 74, 2-[3-(cyclopropyloxy)phenyl]-N-{5-[(7-isopropyl-7H-pyrrolo[2,3-d]pyrimidin-5-yl)carbonyl]pyridin-3-yl}acetamide], for which the IC50 was found to be 1210 nM.

Regarding `CC(C)n1cc(C(=O)c2cncc(NC(=O)Cc3cccc(CO)c3)c2)c2cncnc21` [Example 75, 2-[3-(hydroxymethyl)phenyl]-N-{5-[(7-isopropyl-7H-pyrrolo[2,3-d]pyrimidin-5-yl)carbonyl]pyridin-3-yl}acetamide], the half-maximal inhibitory concentration (IC50) came out at 567 nM.

As to `CC(C)n1cc(C(=O)c2cncc(NC(=O)Cc3ccc(C#N)c(F)c3)c2)c2cncnc21` [Example 76, 2-(4-cyano-3-fluorophenyl)-N-{5-[(7-isopropyl-7H-pyrrolo[2,3-d]pyrimidin-5-yl)carbonyl]pyridin-3-yl}acetamide], the 50% inhibitory concentration (IC50) was determined as 173 nM.

Turning to `COc1cc(CC(=O)Nc2cncc(C(=O)c3cn(C(C)C)c4ncncc34)c2)ccc1C#N` [Example 77, 2-(4-cyano-3-methoxyphenyl)-N-{5-[(7-isopropyl-7H-pyrrolo[2,3-d]pyrimidin-5-yl)carbonyl]pyridin-3-yl}acetamide], the half-maximal inhibitory concentration (IC50) worked out at 64.3 nM.

Regarding `CC(C)n1cc(C(=O)c2cncc(NC(=O)CN3Cc4ccc(F)cc4C3=O)c2)c2cncnc21` [Example 78, 2-(6-fluoro-1-oxo-1,3-dihydro-2H-isoindol-2-yl)-N-{5-[(7-isopropyl-7H-pyrrolo[2,3-d]pyrimidin-5-yl)carbonyl]pyridin-3-yl}acetamide], the concentration for half-maximal inhibition (IC50) was found to be 203 nM.

As for `CC(C)n1cc(C(=O)c2cncc(NC(=O)Cn3ccc(-c4ccccn4)n3)c2)c2cncnc21` [Example 79, N-{5-[(7-isopropyl-7H-pyrrolo[2,3-d]pyrimidin-5-yl)carbonyl]pyridin-3-yl}-2-(3-pyridin-2-yl-1H-pyrazol-1-yl)acetamide], the IC50 turned out to be 1580 nM.

For the compound `CC(C)n1cc(C(=O)c2cncc(NC(=O)Cc3ccc4[nH]cnc4c3)c2)c2cncnc21` [Example 80, 2-(1H-benzimidazol-5-yl)-N-{5-[(7-isopropyl-7H-pyrrolo[2,3-d]pyrimidin-5-yl)carbonyl]pyridin-3-yl}acetamide], the IC50 was found to be 392 nM.

Consider `CC(C)n1cc(C(=O)c2cncc(NC(=O)Cc3ccc4nccnc4c3)c2)c2cncnc21` [Example 81, N-{5-[(7-isopropyl-7H-pyrrolo[2,3-d]pyrimidin-5-yl)carbonyl]pyridin-3-yl}-2-quinoxalin-6-ylacetamide], for which the half-inhibitory concentration (IC50) worked out at 197 nM.

For `CC(C)n1cc(C(=O)c2cncc(NC(=O)Cc3cnc4cccnc4c3)c2)c2cncnc21` [Example 82, N-{5-[(7-isopropyl-7H-pyrrolo[2,3-d]pyrimidin-5-yl)carbonyl]pyridin-3-yl}-2-(1,5-naphthyridin-3-yl)acetamide], the half-inhibitory concentration (IC50) turned out to be 908 nM.

Consider `CC(C)n1cc(C(=O)c2cncc(NC(=O)Cc3ccc4onc(N)c4c3)c2)c2cncnc21` [Example 83, 2-(3-amino-1,2-benzisoxazol-5-yl)-N-{5-[(7-isopropyl-7H-pyrrolo[2,3-d]pyrimidin-5-yl)carbonyl]pyridin-3-yl}acetamide], for which the half-inhibitory concentration (IC50) came to 355 nM.

`CC(C)n1cc(C(=O)c2cncc(NC(=O)Cc3ccc4[nH]c(C(F)(F)F)nc4c3)c2)c2cncnc21` [Example 84, N-{5-[(7-isopropyl-7H-pyrrolo[2,3-d]pyrimidin-5-yl)carbonyl]pyridin-3-yl}-2-[2-(trifluoromethyl)-1H-benzimidazol-5-yl]acetamide]: the IC50 was 2860 nM.

With `CC(C)n1cc(C(=O)c2cncc(NC(=O)Cc3ccn4ccnc4c3)c2)c2cncnc21` [Example 85, 2-imidazo[1,2-a]pyridin-7-yl-N-{5-[(7-isopropyl-7H-pyrrolo[2,3-d]pyrimidin-5-yl)carbonyl]pyridin-3-yl}acetamide], the IC50 was 70.8 nM.

For `CC(C)n1cc(C(=O)c2cncc(NC(=O)Cn3ncc4ncccc43)c2)c2cncnc21` [Example 86, N-{5-[(7-isopropyl-7H-pyrrolo[2,3-d]pyrimidin-5-yl)carbonyl]pyridin-3-yl}-2-(1H-pyrazolo[4,3-b]pyridin-1-yl)acetamide], the 50% inhibitory concentration (IC50) worked out at 95.5 nM.

As to `CC(C)n1cc(C(=O)c2cncc(NC(=O)Cc3cccc(S(C)(=O)=O)c3)c2)c2cncnc21` [Example 87, N-{5-[(7-isopropyl-7H-pyrrolo[2,3-d]pyrimidin-5-yl)carbonyl]pyridin-3-yl}-2-[3-(methylsulfonyl)phenyl]acetamide], the IC50 turned out to be 63.2 nM.

`CC(C)n1cc(C(=O)c2cncc(NC(=O)Cn3cc(C4CC4)nn3)c2)c2cncnc21` [Example 88, 2-(4-cyclopropyl-1H-1,2,3-triazol-1-yl)-N-{5-[(7-isopropyl-7H-pyrrolo[2,3-d]pyrimidin-5-yl)carbonyl]pyridin-3-yl}acetamide]: the IC50 was found to be 56.6 nM.

As for `CC(C)n1cc(C(=O)c2cncc(NC(=O)Cc3ccc4ocnc4c3)c2)c2cncnc21` [Example 89, 2-(1,3-benzoxazol-5-yl)-N-{5-[(7-isopropyl-7H-pyrrolo[2,3-d]pyrimidin-5-yl)carbonyl]pyridin-3-yl}acetamide], the half-inhibitory concentration (IC50) was 21.7 nM.

Regarding `CC(C)n1cc(C(=O)c2cncc(NC(=O)Cn3ccc(C4CC4)n3)c2)c2cncnc21` [Example 90, 2-(3-cyclopropyl-1H-pyrazol-1-yl)-N-{5-[(7-isopropyl-7H-pyrrolo[2,3-d]pyrimidin-5-yl)carbonyl]pyridin-3-yl}acetamide], the half-maximal inhibitory concentration (IC50) came out at 8.81 nM.

Regarding `CC(C)n1cc(C(=O)c2cncc(NC(=O)Cc3cncc(OC4CC4)c3)c2)c2cncnc21` [Example 91, 2-[5-(cyclopropyloxy)pyridin-3-yl]-N-{5-[(7-isopropyl-7H-pyrrolo[2,3-d]pyrimidin-5-yl)carbonyl]pyridin-3-yl}acetamide], the IC50 turned out to be 1030 nM.

As for `CC(C)n1cc(C(=O)c2cncc(NC(=O)Cc3ccc4c(c3)CCO4)c2)c2cncnc21` [Example 92, 2-(2,3-dihydro-1-benzofuran-5-yl)-N-{5-[(7-isopropyl-7H-pyrrolo[2,3-d]pyrimidin-5-yl)carbonyl]pyridin-3-yl}acetamide], the 50% inhibitory concentration (IC50) was determined as 41.5 nM.

Consider `CC(C)n1cc(C(=O)c2cncc(NC(=O)Cn3cc4ccccc4n3)c2)c2cncnc21` [Example 93, 2-(2H-indazol-2-yl)-N-{5-[(7-isopropyl-7H-pyrrolo[2,3-d]pyrimidin-5-yl)carbonyl]pyridin-3-yl}acetamide], for which the IC50 was found to be 12.4 nM.

As for `CC(C)n1cc(C(=O)c2cncc(NC(=O)Cn3cc4cc(F)ccc4n3)c2)c2cncnc21` [Example 94, 2-(5-fluoro-2H-indazol-2-yl)-N-{5-[(7-isopropyl-7H-pyrrolo[2,3-d]pyrimidin-5-yl)carbonyl]pyridin-3-yl}acetamide], the IC50 came out at 54.8 nM.

Regarding `CC(C)n1cc(C(=O)c2cncc(NC(=O)Cn3ncc4cc(F)ccc43)c2)c2cncnc21` [Example 95, 2-(5-fluoro-1H-indazol-1-yl)-N-{5-[(7-isopropyl-7H-pyrrolo[2,3-d]pyrimidin-5-yl)carbonyl]pyridin-3-yl}acetamide], the concentration for half-maximal inhibition (IC50) was 3.95 nM.

On to `Cc1cc(C(F)(F)F)nn1CC(=O)Nc1cncc(C(=O)c2cn(C(C)C)c3ncncc23)c1` [Example 96, N-{5-[(7-isopropyl-7H-pyrrolo[2,3-d]pyrimidin-5-yl)carbonyl]pyridin-3-yl}-2-[5-methyl-3-(trifluoromethyl)-1H-pyrazol-1-yl]acetamide], for which the IC50 came to 5.45 nM.

`CC(C)n1cc(C(=O)c2cncc(NC(=O)Cn3ccc(C(F)(F)F)n3)c2)c2cncnc21` [Example 97, N-{5-[(7-isopropyl-7H-pyrrolo[2,3-d]pyrimidin-5-yl)carbonyl]pyridin-3-yl}-2-[3-(trifluoromethyl)-1H-pyrazol-1-yl]acetamide]: the IC50 came to 4.86 nM.

Turning to `CC(C)n1cc(C(=O)c2cncc(NC(=O)Cc3ccc(Cl)cn3)c2)c2cncnc21` [Example 98, 2-(5-chloropyridin-2-yl)-N-{5-[(7-isopropyl-7H-pyrrolo[2,3-d]pyrimidin-5-yl)carbonyl]pyridin-3-yl}acetamide], the concentration for half-maximal inhibition (IC50) turned out to be 5.16 nM.

For the compound `CC(C)n1cc(C(=O)c2cncc(NC(=O)Cc3ccc4cccnc4c3)c2)c2cncnc21` [Example 100, N-{5-[(7-isopropyl-7H-pyrrolo[2,3-d]pyrimidin-5-yl)carbonyl]pyridin-3-yl}-2-quinolin-7-ylacetamide], the IC50 is 25.6 nM.

Take `CC(C)n1cc(C(=O)c2cncc(NC(=O)Cn3cc4cccc(F)c4n3)c2)c2cncnc21` [Example 101, 2-(7-fluoro-2H-indazol-2-yl)-N-{5-[(7-isopropyl-7H-pyrrolo[2,3-d]pyrimidin-5-yl)carbonyl]pyridin-3-yl}acetamide]: the IC50 amounted to 204 nM.

Take `CC(C)n1cc(C(=O)c2cncc(NC(=O)Cn3ncc4cccnc43)c2)c2cncnc21` [Example 102, N-{5-[(7-isopropyl-7H-pyrrolo[2,3-d]pyrimidin-5-yl)carbonyl]pyridin-3-yl}-2-(1H-pyrazolo[3,4-b]pyridin-1-yl)acetamide]: the 50% inhibitory concentration (IC50) came to 42.9 nM.
